These are literature values, as cited in patent publication US9289392B2, “Extended release pharmaceutical composition of entacapone or salts thereof” (Wockhardt Ltd., priority 2008, dated 2016).

On to `C[C@@](Cc1ccc(O)c(O)c1)(NN)C(=O)O` [Carbidopa], for which the solubility in water result is listed as “slightly soluble”.
As to `N[C@@H](Cc1ccc(O)c(O)c1)C(=O)O` [Levodopa, (−)-L-α-amino-β-(3,4-dihydroxybenzene) propanoic acid], the solubility in water entry was “slightly soluble”.
